# Laboratory results reported in ChEMBL document CHEMBL1201862, “PubChem BioAssay data set” (2004).
# Active and inactive are the calls of the source.
# Columns and labels:
# [1] = target: T1, Long-chain-fatty-acid--AMP ligase FadD28 (Mycobacterium tuberculosis, UniProt P9WQ59); assay: Fluorescence polarization aasay to screen for inhibitors that compete for the binding of FadD28 to a bisubstrate Measured in Biochemical System Using Plate Reader - 2147-01_Inhibitor_Dose_CherryPick_Activity.; format: functional, Mycobacterium tuberculosis H37Rv
# T1 sequence (P9WQ59 whole entry): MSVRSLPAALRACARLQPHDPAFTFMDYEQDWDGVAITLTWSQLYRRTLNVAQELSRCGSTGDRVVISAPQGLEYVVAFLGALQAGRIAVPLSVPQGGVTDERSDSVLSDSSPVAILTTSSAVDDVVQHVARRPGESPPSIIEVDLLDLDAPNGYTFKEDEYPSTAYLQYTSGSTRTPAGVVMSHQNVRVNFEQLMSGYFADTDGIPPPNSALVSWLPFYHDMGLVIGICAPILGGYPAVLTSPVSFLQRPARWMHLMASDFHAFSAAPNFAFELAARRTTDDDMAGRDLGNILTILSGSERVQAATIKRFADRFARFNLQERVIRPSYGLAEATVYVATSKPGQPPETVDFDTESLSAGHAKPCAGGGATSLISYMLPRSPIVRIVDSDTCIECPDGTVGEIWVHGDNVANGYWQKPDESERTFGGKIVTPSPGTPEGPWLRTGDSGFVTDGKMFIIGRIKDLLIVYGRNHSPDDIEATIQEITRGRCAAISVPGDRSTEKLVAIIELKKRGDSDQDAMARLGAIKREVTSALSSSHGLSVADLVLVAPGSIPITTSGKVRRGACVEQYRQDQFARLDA
# Large T antigen = Large T antigen (Simian virus 40, UniProt P03070); format: functional, Betapolyomavirus macacae;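 note: Confirmatory-stage PubChem screen for compounds that inhibit SV40 T antigen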
# Chain of Large T antigen (P03070 whole entry): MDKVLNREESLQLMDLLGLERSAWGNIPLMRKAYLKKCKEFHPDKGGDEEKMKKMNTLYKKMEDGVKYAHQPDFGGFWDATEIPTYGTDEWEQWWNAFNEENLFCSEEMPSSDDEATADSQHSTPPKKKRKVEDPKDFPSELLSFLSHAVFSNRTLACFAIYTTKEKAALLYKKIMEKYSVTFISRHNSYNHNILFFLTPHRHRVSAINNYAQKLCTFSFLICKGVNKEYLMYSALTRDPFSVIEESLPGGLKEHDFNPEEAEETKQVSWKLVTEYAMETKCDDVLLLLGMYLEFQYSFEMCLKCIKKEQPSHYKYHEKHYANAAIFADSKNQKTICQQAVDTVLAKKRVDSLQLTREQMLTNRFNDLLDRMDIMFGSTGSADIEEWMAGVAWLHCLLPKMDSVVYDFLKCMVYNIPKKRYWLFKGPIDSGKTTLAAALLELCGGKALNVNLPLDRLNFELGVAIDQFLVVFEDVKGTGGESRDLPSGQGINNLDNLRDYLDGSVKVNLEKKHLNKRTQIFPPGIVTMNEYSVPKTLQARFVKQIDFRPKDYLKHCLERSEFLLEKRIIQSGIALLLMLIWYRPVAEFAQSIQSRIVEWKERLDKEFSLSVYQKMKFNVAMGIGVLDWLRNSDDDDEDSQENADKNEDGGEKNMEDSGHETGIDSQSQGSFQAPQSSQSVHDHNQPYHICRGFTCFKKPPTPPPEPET
# [2] = target: 26S proteasome non-ATPase regulatory subunit 14 (Homo sapiens, UniProt O00487); assay: inhibition of proteasome subunit RPN11 – biochemical, fluorescence polarization, uHTS hits, confirmation (AID 602368); format: functional
# Chain of 26S proteasome non-ATPase regulatory subunit 14 (O00487 whole entry): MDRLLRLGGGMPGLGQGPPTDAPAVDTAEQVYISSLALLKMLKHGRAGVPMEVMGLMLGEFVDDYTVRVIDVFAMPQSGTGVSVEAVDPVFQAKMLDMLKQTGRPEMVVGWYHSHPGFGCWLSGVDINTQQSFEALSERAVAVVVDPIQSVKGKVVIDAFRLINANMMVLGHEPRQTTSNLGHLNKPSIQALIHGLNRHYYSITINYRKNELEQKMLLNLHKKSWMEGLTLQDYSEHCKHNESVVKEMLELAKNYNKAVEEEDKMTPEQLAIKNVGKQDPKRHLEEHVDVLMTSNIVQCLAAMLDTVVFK
# [3] = target: 72 kDa type IV collagenase (Homo sapiens, UniProt P08253); assay: Dose Response validation of uHTS RPN11 inhibitor hits using a MMP-2 Fluorescence assay.; format: functional
# Chain of 72 kDa type IV collagenase (P08253 whole entry): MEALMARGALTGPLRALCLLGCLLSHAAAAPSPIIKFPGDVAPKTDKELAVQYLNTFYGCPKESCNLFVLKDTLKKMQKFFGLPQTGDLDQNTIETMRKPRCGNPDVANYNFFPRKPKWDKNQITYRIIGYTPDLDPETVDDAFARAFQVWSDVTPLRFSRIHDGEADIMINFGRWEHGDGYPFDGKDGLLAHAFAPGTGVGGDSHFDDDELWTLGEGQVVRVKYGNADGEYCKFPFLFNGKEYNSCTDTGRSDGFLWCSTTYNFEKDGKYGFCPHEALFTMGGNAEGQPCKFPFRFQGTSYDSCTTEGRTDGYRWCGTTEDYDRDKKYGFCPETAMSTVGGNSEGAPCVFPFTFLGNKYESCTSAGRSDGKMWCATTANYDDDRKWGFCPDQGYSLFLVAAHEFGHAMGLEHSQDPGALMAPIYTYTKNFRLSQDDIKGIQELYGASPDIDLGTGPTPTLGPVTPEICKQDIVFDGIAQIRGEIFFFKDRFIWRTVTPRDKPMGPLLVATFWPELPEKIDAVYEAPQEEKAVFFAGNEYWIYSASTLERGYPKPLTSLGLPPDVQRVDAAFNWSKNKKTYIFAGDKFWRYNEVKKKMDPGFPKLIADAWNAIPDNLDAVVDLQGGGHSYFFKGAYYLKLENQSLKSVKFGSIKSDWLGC
# Prothrombin = Prothrombin (Bos taurus, UniProt P00735); assay: thrombin inhibition, dose response, biochemical, fluorescence polarization, uHTS hits (AID 602369); format: functional
# [4] = inhibitors of intracellular T. cruzi replication, confirmation, NIH3T3 host cells, beta-gal luminescence (AID 2044); format: functional, cell-based;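 note: intracellular parasites grown in NIH/3T3 mouse fibroblasts as host cells; luminescent beta-galactosidase reporter signal from transgenic T. cruzi replicating inside host cells; inhibitors lower the luminescence signal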
# [5] = cytotoxicity toward NIH3T3 fibroblasts, dose response, counter-screen, cell-based, ATP luminescence, mouse fibroblasts (AID 2010); format: functional;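 note: cells exposed to compound for about 90 hours before reading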
# [6] = target: T2, Apoptotic protease-activating factor 1 (Homo sapiens, UniProt O14727); format: functional
# T2 sequence (O14727 whole entry): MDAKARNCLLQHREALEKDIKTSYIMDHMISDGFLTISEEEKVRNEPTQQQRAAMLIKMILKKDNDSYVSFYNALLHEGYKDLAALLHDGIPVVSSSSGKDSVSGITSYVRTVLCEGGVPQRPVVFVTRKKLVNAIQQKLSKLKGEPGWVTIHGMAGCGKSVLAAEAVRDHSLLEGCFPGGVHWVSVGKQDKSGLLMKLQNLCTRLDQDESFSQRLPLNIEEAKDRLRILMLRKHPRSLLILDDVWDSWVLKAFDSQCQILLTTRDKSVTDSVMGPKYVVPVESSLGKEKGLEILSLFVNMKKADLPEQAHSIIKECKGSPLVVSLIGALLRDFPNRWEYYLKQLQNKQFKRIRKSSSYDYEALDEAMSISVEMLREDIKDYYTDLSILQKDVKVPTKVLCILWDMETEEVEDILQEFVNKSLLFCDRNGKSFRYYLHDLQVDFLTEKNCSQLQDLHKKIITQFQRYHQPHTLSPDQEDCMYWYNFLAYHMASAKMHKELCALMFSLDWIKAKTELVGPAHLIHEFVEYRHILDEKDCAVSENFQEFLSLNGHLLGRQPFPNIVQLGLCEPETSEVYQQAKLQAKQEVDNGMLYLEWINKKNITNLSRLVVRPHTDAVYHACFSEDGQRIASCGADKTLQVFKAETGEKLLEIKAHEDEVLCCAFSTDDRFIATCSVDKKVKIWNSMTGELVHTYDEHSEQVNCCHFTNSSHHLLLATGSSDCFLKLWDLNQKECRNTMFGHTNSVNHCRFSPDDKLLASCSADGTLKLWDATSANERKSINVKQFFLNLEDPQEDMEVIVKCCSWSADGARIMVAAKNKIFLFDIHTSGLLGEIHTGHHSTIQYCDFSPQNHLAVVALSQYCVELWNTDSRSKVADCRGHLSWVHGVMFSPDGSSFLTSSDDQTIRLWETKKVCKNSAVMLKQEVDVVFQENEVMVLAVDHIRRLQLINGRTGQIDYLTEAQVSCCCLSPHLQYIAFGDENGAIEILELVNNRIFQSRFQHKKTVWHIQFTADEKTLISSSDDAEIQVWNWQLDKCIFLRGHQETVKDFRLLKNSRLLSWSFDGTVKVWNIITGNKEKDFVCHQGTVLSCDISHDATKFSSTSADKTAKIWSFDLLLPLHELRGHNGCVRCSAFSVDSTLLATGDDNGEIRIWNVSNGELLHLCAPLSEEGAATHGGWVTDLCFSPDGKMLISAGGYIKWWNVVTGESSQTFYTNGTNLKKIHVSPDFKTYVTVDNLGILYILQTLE
# [7] = HEp-2 cell cytotoxicity, dose response, cytotoxicity control for RSV inhibitor project, HTS (AID 2410); format: functional; conditions: human respiratory syncytial virus
# [8] = inhibitors of HIV Env-driven cell fusion, dose response, cherry-pick (AID 652057); format: functional, cell-based
# [9] = ZM109 Env clade C HIV-1 fusion inhibitors, dose response, HeLa effector, CEM target cells, luciferase, cherry-pick (AID 652058); format: functional, cell-based
# [10] = off-target signal loss in HeLa-CEM21 co-culture – HeLa F-luc CTL cells, cherry-picked, counter-screen for HIV-1 Env fusion inhibitor project, dose response (AID 652040); format: functional, cell-based;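 note: potency for signal decrease marking cytotoxic or nonspecific inhibition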
# [11] = inhibitors of clade B AD8 Env fusion, dose response, cell-based, cherry-pick (AID 652062); format: functional;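 note: luciferase signal from cell-cell fusion driven by HIV-1 clade B AD8 Env; potency is for inhibitors of fusion seen as a drop in luminescence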
# [12] = target: T3, Corticotropin-releasing factor receptor 2/Corticotropin-releasing factor-binding protein (Homo sapiens, UniProt P24387+Q13324); assay: Dose Response confirmation of uHTS hits for small molecule antagonists of the CRF-binding protein and CRF-R2 receptor complex.; format: functional; conditions: read-out: IC50_Mean
# T3 sequence (Q13324 whole entry): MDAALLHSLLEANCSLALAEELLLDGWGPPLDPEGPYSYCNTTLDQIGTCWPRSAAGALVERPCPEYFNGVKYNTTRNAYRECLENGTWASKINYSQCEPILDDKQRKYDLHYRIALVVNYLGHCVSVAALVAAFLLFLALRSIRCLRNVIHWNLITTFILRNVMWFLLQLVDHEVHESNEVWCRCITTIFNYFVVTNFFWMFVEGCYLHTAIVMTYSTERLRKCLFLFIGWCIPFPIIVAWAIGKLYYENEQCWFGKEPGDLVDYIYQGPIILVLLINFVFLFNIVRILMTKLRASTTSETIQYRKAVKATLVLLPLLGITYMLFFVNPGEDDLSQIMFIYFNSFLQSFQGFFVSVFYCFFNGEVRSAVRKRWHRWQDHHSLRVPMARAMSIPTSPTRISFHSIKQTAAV
# T3 sequence (P24387 whole entry): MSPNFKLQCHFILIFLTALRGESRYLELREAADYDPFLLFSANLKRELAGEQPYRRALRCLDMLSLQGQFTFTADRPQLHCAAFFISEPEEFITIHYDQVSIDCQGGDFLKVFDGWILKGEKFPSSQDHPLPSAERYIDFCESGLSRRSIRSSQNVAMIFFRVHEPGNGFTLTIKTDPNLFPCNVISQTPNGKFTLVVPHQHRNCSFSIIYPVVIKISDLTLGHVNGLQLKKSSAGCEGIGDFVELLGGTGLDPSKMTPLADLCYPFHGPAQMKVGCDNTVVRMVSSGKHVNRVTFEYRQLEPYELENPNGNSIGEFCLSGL
# [13] = target: T3, Corticotropin-releasing factor receptor 2/Corticotropin-releasing factor-binding protein; assay: activators of CRF receptor 2 with binding protein – uHTS hits, confirmation (AID 602473); format: functional; conditions: read-out: EC50_Mean
# [14] = CRF-BP/CRF-R2 complex antagonists, dose response, cell-based, uHTS hits, 384-well (AID 651639); format: functional, Homo sapiens; conditions: read-out: IC50_Mean
# [15] = A549 cell cytotoxicity, dose response, cytotoxicity control, plate reader, cherry-pick, antagonist series (AID 743412); format: functional, cell-based
# [16] = HepG2 cell cytotoxicity, dose response, cytotoxicity control, plate reader, cherry-pick, antagonist series (AID 743416); format: functional, cell-based
# [17] = HEK293 cell cytotoxicity, dose response, cytotoxicity control, plate reader, cherry-picked samples (AID 743446); format: functional, cell-based
# [18] = LGR2 antagonists, dose response, cell-based, HEK293, CRE-luciferase reporter, cherry pick, set 2 (AID 743343); format: functional;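 note: transfected cells were stimulated with diluted bursicon conditioned medium after compound addition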
# [19] = MC4R antagonists, dose response, counter-screen for LGR2 antagonist project, cell-based, plate reader, cherry pick (AID 743444); format: functional;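 note: transfected HEK 293 cells stimulated with alpha-MSH peptide; potency of inhibitors of the alpha-MSH evoked signal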
# [20] = microbe, parasite or virus in culture; format: functional; conditions: Mycobacterium tuberculosis
# Estrogen receptor = target: T4, Estrogen receptor (Homo sapiens, UniProt P03372);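 note: potency for inhibiting coactivator peptide recruitment to the receptor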
# T4 sequence (P03372 whole entry): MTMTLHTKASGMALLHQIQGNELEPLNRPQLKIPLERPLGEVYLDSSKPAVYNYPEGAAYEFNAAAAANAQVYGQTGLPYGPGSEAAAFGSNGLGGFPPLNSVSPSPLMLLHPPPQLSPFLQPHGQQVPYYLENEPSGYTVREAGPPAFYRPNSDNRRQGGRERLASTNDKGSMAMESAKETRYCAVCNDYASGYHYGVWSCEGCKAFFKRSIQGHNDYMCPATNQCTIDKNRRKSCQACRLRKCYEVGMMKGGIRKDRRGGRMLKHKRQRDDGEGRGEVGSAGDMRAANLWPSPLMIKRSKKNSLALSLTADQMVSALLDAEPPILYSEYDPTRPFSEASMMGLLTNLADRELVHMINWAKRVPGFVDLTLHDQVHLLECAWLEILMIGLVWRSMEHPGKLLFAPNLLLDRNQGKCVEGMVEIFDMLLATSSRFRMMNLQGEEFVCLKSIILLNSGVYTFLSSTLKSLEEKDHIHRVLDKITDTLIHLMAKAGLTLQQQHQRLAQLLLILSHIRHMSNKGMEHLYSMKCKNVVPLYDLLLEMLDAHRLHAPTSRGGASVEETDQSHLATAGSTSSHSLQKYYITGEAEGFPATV
compound,measurement,setting,value
COc1ccc(C(=O)NCc2ccc(C)cc2)cc1S(=O)(=O)N1CCCC1,AC50,[1],19 µM (active)
CC(=O)Nc1ccc(/N=C(/C2=C(O)c3ccccc3C2=O)c2ccccc2)cc1,AC50,[1],> 100 µM (inactive)
N#C/C(=C\c1ccc(O)c(O)c1)C(=O)N1CCc2ccccc21,IC50,Large T antigen,11.9 µM (active)
same,IC50,[2],0.798 µM (active)
same,IC50,[3],> 100 µM (inactive)
same,IC50,Prothrombin,45.9 µM (active)
NC(=O)CC(NC(=O)Cc1ccc(Cl)cc1)c1ccc(NC2CCCC2)c([N+](=O)[O-])c1 (stereo not drawn),IC50,[2],29.9 µM (active)
same,IC50,[3],> 100 µM (inactive)
same,IC50,Prothrombin,38.8 µM (active)
COc1ccc2c(c1)Cc1sc(NC(=O)c3cccs3)nc1-2,EC50,[4],2.01 µM (active)
same,EC50,[5],> 60 µM (not active)
same,IC50,[6],28.7 µM (active)
COc1cccc(C2CC(c3ccccc3)=NN2S(=O)(=O)c2ccccc2)c1OC (stereo not drawn),AC50,[1],62.2 µM (active)
CN(CC(=O)Nc1ccc(Cl)c(C(F)(F)F)c1)C(=O)CC1Sc2ccccc2NC1=O (stereo not drawn),IC50,[6],33.6 µM (active)
CC[C@@]12C(=O)N(c3ccc(C)cc3)C(=O)N1[C@H](c1ccc(Br)cc1)[C@@H]1C(=O)N(C(C)(C)C)C(=O)[C@@H]12,CC50,[7],> 50 µM (active)
same,AC50,[8],0.301 µM (active)
same,AC50,[9],< 0.5 µM (active)
same,AC50,[10],0.559 µM (active)
same,AC50,[11],1.06 µM (active)
O=C1CCCC2=C1C(c1ccc(Cl)cc1)C1C(=O)c3ccccc3C1=N2 (stereo not drawn),CC50,[7],17 µM (active)
same,AC50,[1],> 100 µM (inactive)
CCOC(=O)c1c(NC(=O)c2c(Br)cnn2C)c(C#N)nn1-c1ccccc1,IC50,[12],43.9 µM (active)
same,EC50,[13],> 53 µM (inactive)
same,IC50,[14],18.4 µM (active)
CC(C)(C)c1nc2ccc(Cl)cn2c1CC1CCCCC1,AC50,[15],> 52 µM (inactive)
same,AC50,[16],> 52 µM (inactive)
same,AC50,[17],> 52 µM (inactive)
Cc1ccsc1/C=N\NC(=O)c1[nH]nc2c1CCC2,AC50,[15],3.65 µM (active)
same,AC50,[16],4.37 µM (active)
same,AC50,[18],6.59 µM (active)
same,AC50,[19],7.75 µM (active)
same,AC50,[17],16.4 µM (active)
O=C(COC(=O)c1cnc(Cl)c(Cl)c1)NCCC1=CCCCC1,IC50,[12],7.16 µM (active)
same,EC50,[13],> 53 µM (inactive)
same,IC50,[14],7.15 µM (active)
COC(=O)C(NC(=O)c1ccc(OC)cc1)(Nc1ncc(S(=O)(=O)c2ccc([N+](=O)[O-])cc2)s1)C(F)(F)F (stereo not drawn),CC50,[7],13.4 µM (active)
same,CC50,[20],> 40 µM (active)
same,IC50,[12],< 0.368 µM (active)
same,EC50,[13],> 53 µM (inactive)
same,IC50,[14],2.58 µM (active)
Brc1ccccc1-c1nnc(CSc2nnnn2-c2ccccc2)o1,IC50,Estrogen receptor,> 50 µM (not active)
same,IC50,[12],8.93 µM (active)
same,EC50,[13],> 53 µM (inactive)
same,IC50,[14],1.36 µM (active)
C=C1CCN([C@H](C(=O)OCc2ccc(C)cc2)C(C)C)S(=O)(=O)c2ccccc21,AC50,[8],3.35 µM (active)
same,AC50,[9],7.43 µM (active)
same,AC50,[10],5.69 µM (active)
same,AC50,[11],13.2 µM (active)
